Reference: patent US5628328A, “Method for measuring muscle mass” (priority 1995, dated 1997)
Read-outs that look alike come from different tables or passages of the source.

Legend:
[1] = parameters: species or system dogs; conditions: dog, in vivo
Text: Urinary 3-methylhistidine may be used in cattle and humans as an index of muscle protein breakdown but is invalid for use in pigs and lambs. […] Previously, in validating urinary 3-methylhistidineas an index of muscle proteolysis, researchers have injected ^14 C-3-methylhistidine intravenously and recovered the tracer in urine but have never described its decay in plasma. In constructing the 3-compartment model, we kept in mind known physiology of 3-methylhistidine. It has been established that there are pools of 3-methylhistidine in plasma, in other extracellular fluid pools, within muscle and in other tissues. The primary fate of 3-methylhistidine in humans, cattle and dogs is into urine (model exit from compartment 1), but in sheep and pigs there is a balenine pool in muscle that accumulates over time (model exit from compartment 3). The kinetic data were initially fitted to three exponential terms, indicating the possibility of a three compartment model. […] Model code 10 of SAAM was used and the models were based on a set of linear differential equations having constant coefficients. Based on comparison of fits, a 3-compartment model was the best model to describe the metabolism of 3-methylhistidine; however, 2- and 4-compartment models as well as other configurations were also evaluated. […]

[2] = parameters: species or system cattle; conditions: bovine, in vivo
Description: A minimal model using 4-5 measurements and one compartment rather than three was evaluated. In the minimal model the three pools of the 3-compartment model were combined to form one homogeneous pool of 3-methylhistidine, characterized by a de novo production into the body pool and one exit from the model. The kinetic data between 720 and 4320 min was used for the analysis; this time frame corresponds to apparent linear steady state portion of the decay curve. The limitation of the 1-compartment model is the lost ability to described the entire metabolism of 3-methylhistidine. Only the rate of proteolysis and a total pool size can be estimated. […] (Rathmacher, J. et al., "The use of compartmental models of 3-methylhistidine flux to evaluate skeletal muscle protein turnover in implanted steers," J. Anim. Sci. (1993) 71:135.) However, in cattle the minimal model estimates of 3-methylhistidine production were 30% higher, but the estimates of 3-methylhistidine production were highly correlated (r=0.93, P 0.0001).

[3] = cattle, cited from earlier work
[4] = cited from earlier work
[5] = sheep, cited from earlier work
[6] = cited from earlier work; remark: listed apart in the source
[7] = rabbit; cited from earlier work
[8] = cited from earlier work; remark: listed apart in the source
[9] = adult rat, Millward et al. 1980

Model 3-methylhistidine production versus urinary production [1]: qualitatively similar
3-methylhistidine production, minimal model above 3-compartment model [2]: 30%
Compound: Cn1cnc(C[C@H](N)C(=O)O)c1 [3-methylhistidine]
L2,1 fractional transfer rate ([3]; comparison): 0.18 min⁻¹
3MH Production ([3]; n=36, from model): 6.2 µmol/kg/day
M1, compartment mass ([3]; n=36): 806 nmol/kg
M2, compartment mass ([3]; n=36): 2106 nmol/kg
M3, compartment mass ([3]; n=36): 7803 nmol/kg
R01 mass transfer rate ([3]; n=36): 4.2 nmol/kg/min
R12 mass transfer rate ([3]; n=36): 107 nmol/kg/min
R21 mass transfer rate ([3]; n=36): 103 nmol/kg/min
R23 mass transfer rate ([3]; n=36): 9.6 nmol/kg/min
R32 mass transfer rate ([3]; n=36): 5.4 nmol/kg/min
L0,1 fractional transfer rate ([3]; number 39): .006 min⁻¹
L1,2 fractional transfer rate ([3]; number 39): .06 min⁻¹
L2,1 fractional transfer rate ([3]; number 39): .18 min⁻¹
L2,3 fractional transfer rate ([3]; number 39): .002 min⁻¹
L3,2 fractional transfer rate ([3]; number 39): .003 min⁻¹
Urinary 3MH loss ([3]; number 39): 100 % of total
3MH Production ([4]; pigs, n=20, from model): 7.2 µmol/kg/day
M1, compartment mass ([4]; pigs, n=20): 1110 nmol/kg
M2, compartment mass ([4]; pigs, n=20): 2857 nmol/kg
M3, compartment mass ([4]; pigs, n=20): 6151 nmol/kg
R03 mass transfer rate ([4]; pigs, n=20): 5.0 nmol/kg/min
R12 mass transfer rate ([4]; pigs, n=20): 247 nmol/kg/min
R21 mass transfer rate ([4]; pigs, n=20): 247 nmol/kg/min
R23 mass transfer rate ([4]; pigs, n=20): 32 nmol/kg/min
R32 mass transfer rate ([4]; pigs, n=20): 37 nmol/kg/min
Urinary excretion of total daily 3-methylhistidine produced ([4]; pigs): 1.5 %/d
L0,3 fractional transfer rate ([4]; swine, number 20): .0009 min⁻¹
L1,2 fractional transfer rate ([4]; swine, number 20): .09 min⁻¹
L2,1 fractional transfer rate ([4]; swine, number 20): .23 min⁻¹
L2,3 fractional transfer rate ([4]; swine, number 20): .006 min⁻¹
L3,2 fractional transfer rate ([4]; swine, number 20): .014 min⁻¹
Urinary 3MH loss ([4]; swine, number 20): 1 % of total
3MH Production ([5]; n=36, from model): 10.1 µmol/kg/day
M1, compartment mass ([5]; n=36): 4693 nmol/kg
M2, compartment mass ([5]; n=36): 11634 nmol/kg
M3, compartment mass ([5]; n=36): 16494 nmol/kg
R01 mass transfer rate ([5]; n=36): 1.4 nmol/kg/min
R03 mass transfer rate ([5]; n=36): 5.7 nmol/kg/min
R12 mass transfer rate ([5]; n=36): 930 nmol/kg/min
R21 mass transfer rate ([5]; n=36): 928 nmol/kg/min
R23 mass transfer rate ([5]; n=36): 80 nmol/kg/min
R32 mass transfer rate ([5]; n=36): 84 nmol/kg/min
L0,1 fractional transfer rate ([5]; number 40): .0003 min⁻¹
L0,3 fractional transfer rate ([5]; number 40): .0004 min⁻¹
L1,2 fractional transfer rate ([5]; number 40): .08 min⁻¹
L2,1 fractional transfer rate ([5]; number 40): .21 min⁻¹
L2,3 fractional transfer rate ([5]; number 40): .005 min⁻¹
L3,2 fractional transfer rate ([5]; number 40): .007 min⁻¹
Urinary 3MH loss ([5]; number 40): 17 % of total
Urinary excretion of total daily 3-methylhistidine produced [5]: 15%
Urinary excretion ([6]; pigs, retained in muscle as balenine): not quantitatively excreted in urine
3-methylhistidine excreted into urine ([6]; swine, of 3-methylhistidine from muscle metabolism): less than 2%
Urinary excretion [7]: quantitatively excreted in the urine
Contribution of skin and intestine to 3-methylhistidine excreted per day in urine ([8]; adult rat, Millward and Bates): 17%
Contribution of gastrointestinal tract to 3-methylhistidine excreted [8, 9]: 10%
Contribution of skeletal muscle to 3-methylhistidine excreted [8, 9]: 25%
Contribution of skin to 3-methylhistidine excreted [8, 9]: 7%
Reutilization for protein synthesis ([8]; no specific tRNA): not reutilized for protein synthesis
Share of total bound 3-methylhistidine in skeletal muscle ([8]; rat organs, Haverberg et al., skin and intestine not assessed): 98%
Urinary excretion ([8]; rat): quantitatively excreted in the urine
Contribution of small intestine to 24-hour urinary excretion ([8]; rats, duodenoileostomy): did not make a significant contribution
